Assay results as given in US12239134B2, “Plant antimicrobial compositions including an emulsifier and/or ozone and methods of use” (Arizona Board of Regents on Behalf of The University of …, priority 2018, dated 2025).

Tested on: Salmonella Newport
Assay: Biofilm formation on food contact surface coupons, direct plating
Format: cell-based, Salmonella enterica
Conditions: two-minute treatment
Protocol: A protocol based on direct plating was also evaluated for testing the biofilm formation by Salmonella or L. monocytogenes. Biofilms were formed on three different food contact surface coupons (HDPE, Buna-N rubber, and 316 stainless steel) for up to 3 days in 35 mm mini-petri dishes. Biofilms were formed using a 1:10 diluted TSB solution (10 mL) with either S. enterica or L. monocytogenes inoculum (100 μL). The diluted TSB was changed every 16-18 hours with new 1:10 diluted TSB (10 mL). Coupons were removed for sampling and enumeration of strongly attached bacteria at three different time points (Day 0, 1, and 3). The coupons were rinsed with deionized water five times to remove planktonic cells. Then the coupons were immersed in 10 mL of BPW. The coupons were sonicated for 2 minutes using different settings (Tables 11 and 12) for each organism. After sonication, the solution was serially diluted and plated on Tryptic Soy Agar (TSA). Plates were incubated at 37° C. for 24-48 hours. The colonies were counted and the colony forming units were determined for the various sonication settings, so that the appropriate setting with the most recovery could be determined. […] These settings were used in further experiments to recover the bacterial cells from coupons during sampling and enumeration (by spread plating) of the bacteria in biofilms.
The reduction in bacterial biofilm formation was also tested using a direct plating method. Biofilms were formed on six different food contact surface coupons (HDPE, Buna-N rubber, PC, PVC, and stainless steel 304 and 316) in separate 35 mm mini-petri dishes and evaluated at three different time points (Day 0, 1, and 3). Biofilms were formed using a 1:10 diluted TSB solution (10 mL) with either S. enterica or L. monocytogenes inoculum (100 μL). The coupons were also washed and treated with antimicrobial solutions containing the plant-based emulsifier and the essential oil/plant extracts at various concentrations. The diluted TSB was changed every 16-18 hours with new 1:10 diluted TSB (10 mL). The coupons were rinsed in the antimicrobial solution before adding them to the petri dishes containing the fresh, diluted TSB. After their specific time points, coupons were removed aseptically using sterile forceps from the petri dish. The coupons were rinsed by submerging in 25 mL of sterile deionized H2O and swirled five times to remove planktonic cells. After rinsing, they were placed into a new petri dish immersed in 10 mL of BPW. The coupons were sonicated for 2 minutes on ice using different settings for each organism. After sonication, the sonicated solution was serially diluted using 0.1% peptone water and spread plated on TSA in duplicate. Plates were incubated overnight at 37° C. for 24-48 hours, after which, the colonies were counted, to establish the efficacy of the antimicrobial solutions (Tables 17-25).

Structure (SMILES): O=CC=Cc1ccccc1 [Cinnamaldehyde, cinnamaldehyde]
- Survivors of Salmonella Newport on food contact surface (0.5% with 0.0001% saponin microemulsion, Day 0, 304 SS): 4.31 Log CFU/mL
- Survivors of Salmonella Newport on food contact surface (0.5% with 0.0001% saponin microemulsion, Day 0, 316 SS): 4.30 Log CFU/mL
- Survivors of Salmonella Newport on food contact surface (0.5% with 0.0001% saponin microemulsion, Day 0, Buna N): 4.23 Log CFU/mL
- Survivors of Salmonella Newport on food contact surface (0.5% with 0.0001% saponin microemulsion, Day 0, HDPE): 4.27 Log CFU/mL
- Survivors of Salmonella Newport on food contact surface (0.5% with 0.0001% saponin microemulsion, Day 0, PC): 4.06 Log CFU/mL
- Survivors of Salmonella Newport on food contact surface (0.5% with 0.0001% saponin microemulsion, Day 0, PVC): 3.93 Log CFU/mL
- Survivors of Salmonella Newport on food contact surface (0.5% with 0.0001% saponin microemulsion, Day 1, 304 SS): 4.45 Log CFU/mL
- Survivors of Salmonella Newport on food contact surface (0.5% with 0.0001% saponin microemulsion, Day 1, 316 SS): 4.48 Log CFU/mL
- Survivors of Salmonella Newport on food contact surface (0.5% with 0.0001% saponin microemulsion, Day 1, Buna N): 4.87 Log CFU/mL
- Survivors of Salmonella Newport on food contact surface (0.5% with 0.0001% saponin microemulsion, Day 1, HDPE): 4.24 Log CFU/mL
- Survivors of Salmonella Newport on food contact surface (0.5% with 0.0001% saponin microemulsion, Day 1, PC): 4.20 Log CFU/mL
- Survivors of Salmonella Newport on food contact surface (0.5% with 0.0001% saponin microemulsion, Day 1, PVC): 4.36 Log CFU/mL
- Survivors of Salmonella Newport on food contact surface (0.5% with 0.0001% saponin microemulsion, Day 3, 304 SS): 4.39 Log CFU/mL
- Survivors of Salmonella Newport on food contact surface (0.5% with 0.0001% saponin microemulsion, Day 3, 316 SS): 4.26 Log CFU/mL
- Survivors of Salmonella Newport on food contact surface (0.5% with 0.0001% saponin microemulsion, Day 3, Buna N): 4.34 Log CFU/mL
- Survivors of Salmonella Newport on food contact surface (0.5% with 0.0001% saponin microemulsion, Day 3, HDPE): 3.24 Log CFU/mL
- Survivors of Salmonella Newport on food contact surface (0.5% with 0.0001% saponin microemulsion, Day 3, PC): 3.75 Log CFU/mL
- Survivors of Salmonella Newport on food contact surface (0.5% with 0.0001% saponin microemulsion, Day 3, PVC): 4.21 Log CFU/mL
- Survivors of Salmonella Newport on food contact surface (0.7% with 0.0001% saponin microemulsion, Day 0, 304 SS): 4.0 Log CFU/mL
- Survivors of Salmonella Newport on food contact surface (0.7% with 0.0001% saponin microemulsion, Day 0, 316 SS): 4.68 Log CFU/mL
- Survivors of Salmonella Newport on food contact surface (0.7% with 0.0001% saponin microemulsion, Day 0, Buna N): 4.08 Log CFU/mL
- Survivors of Salmonella Newport on food contact surface (0.7% with 0.0001% saponin microemulsion, Day 0, HDPE): 4.42 Log CFU/mL
- Survivors of Salmonella Newport on food contact surface (0.7% with 0.0001% saponin microemulsion, Day 0, PC): 4.11 Log CFU/mL
- Survivors of Salmonella Newport on food contact surface (0.7% with 0.0001% saponin microemulsion, Day 0, PVC): <1 Log CFU/mL
- Survivors of Salmonella Newport on food contact surface (0.7% with 0.0001% saponin microemulsion, Day 1, 304 SS): 3.68 Log CFU/mL
- Survivors of Salmonella Newport on food contact surface (0.7% with 0.0001% saponin microemulsion, Day 1, 316 SS): 3.0 Log CFU/mL
- Survivors of Salmonella Newport on food contact surface (0.7% with 0.0001% saponin microemulsion, Day 1, Buna N): 3.24 Log CFU/mL
- Survivors of Salmonella Newport on food contact surface (0.7% with 0.0001% saponin microemulsion, Day 1, HDPE): <1 Log CFU/mL
- Survivors of Salmonella Newport on food contact surface (0.7% with 0.0001% saponin microemulsion, Day 1, PC): 3.29 Log CFU/mL
- Survivors of Salmonella Newport on food contact surface (0.7% with 0.0001% saponin microemulsion, Day 1, PVC): <1 Log CFU/mL
- Survivors of Salmonella Newport on food contact surface (0.7% with 0.0001% saponin microemulsion, Day 3, 304 SS): <1 Log CFU/mL
- Survivors of Salmonella Newport on food contact surface (0.7% with 0.0001% saponin microemulsion, Day 3, 316 SS): <1 Log CFU/mL
- Survivors of Salmonella Newport on food contact surface (0.7% with 0.0001% saponin microemulsion, Day 3, Buna N): <1 Log CFU/mL
- Survivors of Salmonella Newport on food contact surface (0.7% with 0.0001% saponin microemulsion, Day 3, HDPE): <1 Log CFU/mL
- Survivors of Salmonella Newport on food contact surface (0.7% with 0.0001% saponin microemulsion, Day 3, PC): <1 Log CFU/mL
- Survivors of Salmonella Newport on food contact surface (0.7% with 0.0001% saponin microemulsion, Day 3, PVC): <1 Log CFU/mL
- Survivors of Salmonella Newport on food contact surface (1% with 0.0001% saponin microemulsion, Day 0, 304 SS): <1 Log CFU/mL
- Survivors of Salmonella Newport on food contact surface (1% with 0.0001% saponin microemulsion, Day 0, 316 SS): <1 Log CFU/mL
- Survivors of Salmonella Newport on food contact surface (1% with 0.0001% saponin microemulsion, Day 0, Buna N): <1 Log CFU/mL
- Survivors of Salmonella Newport on food contact surface (1% with 0.0001% saponin microemulsion, Day 0, HDPE): <1 Log CFU/mL
- Survivors of Salmonella Newport on food contact surface (1% with 0.0001% saponin microemulsion, Day 0, PC): <1 Log CFU/mL
- Survivors of Salmonella Newport on food contact surface (1% with 0.0001% saponin microemulsion, Day 0, PVC): <1 Log CFU/mL
- Survivors of Salmonella Newport on food contact surface (1% with 0.0001% saponin microemulsion, Day 1, 304 SS): <1 Log CFU/mL
- Survivors of Salmonella Newport on food contact surface (1% with 0.0001% saponin microemulsion, Day 1, 316 SS): <1 Log CFU/mL
- Survivors of Salmonella Newport on food contact surface (1% with 0.0001% saponin microemulsion, Day 1, Buna N): <1 Log CFU/mL
- Survivors of Salmonella Newport on food contact surface (1% with 0.0001% saponin microemulsion, Day 1, HDPE): <1 Log CFU/mL
- Survivors of Salmonella Newport on food contact surface (1% with 0.0001% saponin microemulsion, Day 1, PC): <1 Log CFU/mL
- Survivors of Salmonella Newport on food contact surface (1% with 0.0001% saponin microemulsion, Day 1, PVC): <1 Log CFU/mL
- Survivors of Salmonella Newport on food contact surface (1% with 0.0001% saponin microemulsion, Day 3, 304 SS): <1 Log CFU/mL
- Survivors of Salmonella Newport on food contact surface (1% with 0.0001% saponin microemulsion, Day 3, 316 SS): <1 Log CFU/mL
- Survivors of Salmonella Newport on food contact surface (1% with 0.0001% saponin microemulsion, Day 3, Buna N): <1 Log CFU/mL
- Survivors of Salmonella Newport on food contact surface (1% with 0.0001% saponin microemulsion, Day 3, HDPE): <1 Log CFU/mL
- Survivors of Salmonella Newport on food contact surface (1% with 0.0001% saponin microemulsion, Day 3, PC): <1 Log CFU/mL
- Survivors of Salmonella Newport on food contact surface (1% with 0.0001% saponin microemulsion, Day 3, PVC): <1 Log CFU/mL
